System: human epithelial tumor cells
Conditions: DMEM/F12 based culture medium supplemented with BSA vs without; FIG. 10
Method: DF12: DMEM/F12 based culture medium. DF12+BSA: DMEM/12 based culture medium supplemented with BSA. Cell proliferation was measured by EdU incorporation. Error bars represent standard deviation (SD).

## bovine serum albumin [BSA]
  growth of human epithelial tumor cells (cell proliferation by EdU incorporation): supports the growth

From patent US20190284536A1, “EPITHELIAL TUMOR CELL CULTURES” (Beijing Percans Oncology Co., Ltd., priority 2016, published 2019)
